Format in all cases: biochemical
The target in test [1] is T1, recombinant rabbit GSK-3β protein (Oryctolagus cuniculus, UniProt G1T8E2).
T1 construct: purchased New England Biolabs
In words: Glycogen Synthase Kinase-3 Assay (33P-ATP phosphorylation of PPI-2). As for the experimental part: Compounds were tested for the ability to inhibit recombinant rabbit GSK-3β protein using the following protocol. The test compound was added to a reaction mixture containing Protein Phosphatase Inhibitor-2 (PPI-2) (Calbiochem) (45 ng), rabbit GSK-3β protein (New England Biolabs) (0.75 units) and ^33P-ATP (1 μCi) in 50 mM Tris-HCl (pH 8.0), 10 mM MgCl2, 0.1% BSA, 1 mM DTT and 100 μM Sodium Vanadate. The mixture was reacted for 90 minutes at 30° C. to allow phosphorylation of the PPI-2 protein and then the protein in the reaction was precipitated using 10% TCA. The precipitated protein was collected on filter plates (MultiScreen-DV/Millipore), which were subsequently washed. Finally, the radioactivity was quantified using a TopCount Scintillation Counter (Packard). […] Staurosporine or Valproate, known inhibitors of GSK-3β, were used as a positive control for screening.

The next test has as its target PKC-γ (Homo sapiens, UniProt P05129). In words: Protein Kinase C Histone-Based Assay. As to conditions: histone III substrate. As for the experimental part:
(§1) Compounds were evaluated for PKC isozyme selectivity using histone III as the substrate. PKC isozymes α, β-II or γ were added to a reaction mixture that contained 20 mM HEPES, (pH 7.4), 940 μM CaCl2, 10 mM MgCl2, 1 mM EGTA. 100 μg/mL phosphatidylserine, 20 μg/mL diacylglycerol, 30 μM ATP, […] [^33P]ATP and 200 μg/mL histone III. The reaction was incubated for 10 min at 30° C. Reactions were terminated by TCA precipitation and spotting on Whatman P81 filters. Filters were washed in 75 mM phosphoric acid and the radioactivity quantified by liquid scintillation counting.

The next test concerns the target PKC-α (Homo sapiens, UniProt P17252). Briefly: Protein Kinase C Histone-Based Assay. As to conditions: histone III substrate. As for the experimental part: as §1
The target in a further test is PKC-βII (Homo sapiens, UniProt P05771). In words: Protein Kinase C Histone-Based Assay. The settings on record: histone III substrate. Here is the method: as §1
Sequence of PKC-βII (P05771 1-673 isoform P05771-2): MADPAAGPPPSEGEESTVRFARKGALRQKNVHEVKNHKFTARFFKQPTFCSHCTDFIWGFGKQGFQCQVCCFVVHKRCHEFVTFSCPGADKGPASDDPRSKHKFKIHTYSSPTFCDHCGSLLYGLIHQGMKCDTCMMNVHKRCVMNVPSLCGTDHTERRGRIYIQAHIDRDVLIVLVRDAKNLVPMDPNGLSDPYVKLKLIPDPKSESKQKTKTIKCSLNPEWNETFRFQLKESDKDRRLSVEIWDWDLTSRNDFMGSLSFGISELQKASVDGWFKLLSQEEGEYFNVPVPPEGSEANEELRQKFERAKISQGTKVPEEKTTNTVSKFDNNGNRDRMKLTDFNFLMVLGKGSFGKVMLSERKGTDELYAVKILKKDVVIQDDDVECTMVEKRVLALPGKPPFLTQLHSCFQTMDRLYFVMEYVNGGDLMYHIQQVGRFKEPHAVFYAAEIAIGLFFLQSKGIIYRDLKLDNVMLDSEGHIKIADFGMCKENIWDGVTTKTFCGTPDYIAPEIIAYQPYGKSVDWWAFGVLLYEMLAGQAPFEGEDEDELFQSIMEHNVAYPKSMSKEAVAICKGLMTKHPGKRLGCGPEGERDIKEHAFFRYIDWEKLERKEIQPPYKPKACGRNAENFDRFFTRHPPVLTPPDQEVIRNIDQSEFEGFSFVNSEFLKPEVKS

T1 sequence (G1T8E2 1-432): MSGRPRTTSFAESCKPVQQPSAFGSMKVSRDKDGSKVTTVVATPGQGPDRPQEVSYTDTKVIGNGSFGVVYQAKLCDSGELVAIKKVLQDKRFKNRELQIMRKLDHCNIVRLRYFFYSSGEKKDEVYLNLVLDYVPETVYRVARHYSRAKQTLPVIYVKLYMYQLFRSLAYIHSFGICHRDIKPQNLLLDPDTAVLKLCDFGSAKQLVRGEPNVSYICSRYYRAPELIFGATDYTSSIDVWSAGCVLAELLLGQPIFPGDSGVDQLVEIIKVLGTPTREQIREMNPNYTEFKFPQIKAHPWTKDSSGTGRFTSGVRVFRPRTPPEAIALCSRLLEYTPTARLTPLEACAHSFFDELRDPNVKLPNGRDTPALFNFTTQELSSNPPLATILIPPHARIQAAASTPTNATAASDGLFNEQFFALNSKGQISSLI

As to `COCCCn1cc(C2=C(c3ccccc3OC)C(=O)NC2=O)c2cnccc21` [Cpd 1, 3-(2-Methoxyphenyl)-4-[1-(3-methoxypropyl)-1H-pyrrolo[3,2-c]pyridin-3-yl]-1H-pyrrole-2,5-dione], the IC50 (in general, the concentration that gives 50% inhibition) in test [1] came out at 0.0018 µM. Also, the results for the inhibition at 10 µM at PKC-γ (@10 μM) and against PKC-α (@10 μM) were 25% and 31%, respectively. The inhibition (usually the relative decrease from the control value, in per cent) at 1 µM on PKC-βII came out at 22%.

For the molecule `COCCCn1cc(C2=C(c3ccccc3Cl)C(=O)NC2=O)c2cnccc21` [Cpd 2, 3-(2-Chlorophenyl)-4-[1-(3-methoxypropyl)-1H-pyrrolo[3,2-c]pyridin-3-yl]-1H-pyrrole-2,5-dione], the figures for the 50% inhibitory concentration (IC50) (in test [1]; at PKC-γ; on PKC-α) were 0.02 µM, 4.21 µM and 2.51 µM, respectively. Besides, the inhibition at 1 µM against PKC-βII came out at 28%.

(Values after patent publication US7488826B2, “Substituted pyrroline kinase inhibitors” (Janssen Pharmaceutica N.V., priority 2003, dated 2009).)
